Here are results for three compounds from patent publication US20090221690A1, “Pharmaceutical Composition for the Prevention/Treatment of Bone Disorders and a Process for the Preparation Thereof” (COUNCIL OF SCIENTIFIC AND INDUSTRIAL RESEARCH, priority 2006, published 2009).

Test [1] has as its system bilaterally ovariectomized immature rats. The test can be described thus: Estrogen agonistic activity (uterine weight gain). In kind it is in vivo, rat. To be noted: 0.01 mg/kg/d, oral, 3 days.
Description: The test agents were administered once daily for 3 consecutive days by the oral route and uterine weight gain over the corresponding vehicle control group was determined. 17α-Ethynylestradiol was used as reference standard.
The test system of the next test is primary osteoblasts. The test can be described thus: MTT assay for cell proliferation, primary osteoblast cell culture. It counts as cell-based, Balb/c mouse. The settings on record: 24 h; for Osteoblast cell proliferation (MTT assay): Vehicle 0.60 ± 0.06, Mean±SEM. As for the experimental part:
(§1) Neonatal mouse calvarial cell cultures are prepared as described previously (Endocrinology 139:4743) using slight modification. Briefly, for primary osteoblast cell cultures, frontal and parietal bones from Balb/c mouse neonates (1-3 day old) are digested in 0.1% collagenase/0.1% dispase in α-MEM to obtain 5 sequential digests. The second through fifth digests are combined and grown to confluence at 37° C. and 5% CO2 in air in α-MEM, supplemented with 10% fetal bovine serum (FBS), 2 mM glutamine, 100 U/ml penicillin-streptomycin, Non-essential amino acid solution and sodium pyruvate. The effect of test agents is analysed using the following tests:
MTT assay is a common assay used for assessing cell proliferation where tetrazolium salt is reduced to formazone crystals by the mitochondrial dehydrogenase enzyme, which are then dissolved in DMSO. More the number of metabolically active cells more will be the formazone crystals formed. Briefly, osteoblast cells are maintained in α-MEM medium supplemented with 10% FCS and 1% antibiotic solution in 96 well plate. When the cells attain 40% confluency, they are treated in presence or absence of test agents in 2% FCS supplemented media for 24 h. Twenty-four hours thereafter, MTT salt is added to the cells. After 4 h, the formazone crystals formed are dissolved in DMSO and readings taken at wavelength of 570 nm.
This assay is based on the ability of viable cells to reduce tetrazolium salt to form formazone crystals by mitochondrial dehydrogenase enzyme. In MTT assay, osteoblasts are maintained in α-MEM medium supplemented with 10% FCS and 1% antibiotic solution in 96 well plate. When the cells attain 40% confluency, they are treated in presence or absence of test agents in 2% FCS supplemented media for 24 h. Twenty-four hours thereafter, MTT salt is added to the cells. After 4 h, the formazone crystals formed due to reduction of tetrazolium salt by mitochondrial dehydrogenase enzyme are dissolved in DMSO and readings taken at wavelength of 570 nm. All the five pure compounds nos.
(Formazan colour is commonly taken as a measure of viable cells.)

Test [2] relates to osteoblasts cultured on sterile bovine bone slices. Briefly: Mineralisation by osteoblasts cultured on bovine bone slices, Alizarin red staining. The settings on record: 15 days, FIGS. 14 and 15. It counts as cell-based, Balb/c mouse. The procedure:
as §1
(§2) Cells are seeded onto sterile bovine bone slices in 96-well plate and treated with the culture medium containing α-MEM, supplemented with 10% fetal bovine serum, 2 mM glutamine, 100 U/ml penicillin-streptomycin, non-essential amino acid solution, sodium pyruvate, 10 mM P-glycerophosphate and 50 μg/ml ascorbic acid. Culture medium is changed every alternate day. At termination of the culture, cells are washed twice with PBS, fixed in cold 70% ethanol for 1 h and washed once with water and stained with 40 mM Alizarin red (pH 4.7) for 30 min and then washed in PBS to remove excess staining.
as §2, with “In case of osteoblasts” for “Cells are”, “slices, the cells are cultured” for “slices”, “in A-MEM” for “and treated with the culture medium containing α-MEM,”, “p-glycerophosphate” for “P-glycerophosphate”, “acid in the absence or presence of test compounds or their mixtures.” for “acid.”, “culture after 15 days,” for “culture,”

The test system of test [3] is osteoblasts. The test can be described thus: Quantification of alkaline phosphatase activity in osteoblasts. It counts as cell-based, Balb/c mouse. The settings on record: 48 h; for alkaline phosphatase activity: Control 1.87 ± 0.20, Mean±SEM. Further details: alkaline phosphatase activity: unit not given here. The procedure: as §1
p-Nitrophenol phosphate is a colorless substrate which is hydrolysed to colored p-nitrophenol by alkaline phosphatase enzyme. Rate of hydrolysis of p-nitrophenol phosphate is proportional to enzyme present in sample. […] Findings reveal that all the five pure compounds nos.

The subject of another test is osteoblast cells. The test can be described thus: Quantification of mineralization in osteoblasts (Alizarin red, acetic acid extraction). In kind it is cell-based, Balb/c mouse. To be noted: osteoblasts cultured 7 days; vs vehicle control; FIG. 13. The procedure:
as §1
For quantification of mineralization which is measured with increased deposition of nascent calcium in osteoblast cells, cells were cultured in the presence of test compounds for 7 days and stained with Alizarin red. Alizarin red was extracted with acetic acid and the intensity of stain, which is directly proportion to the extent of mineralisation, is read at 405 nm.

Test [4] concerns osteoblasts. Briefly: Osteogenic activity of isolated compounds based on alkaline phosphatase expression, MTT and mineralisation in vitro. In kind it is cell-based. An excerpt: K051, K052, K054, K080, K082 (isolated from n-butanol soluble fraction) and K095 (isolated from chloroform soluble fraction) (FIGS. 11-15; Tables 10-11).
Test [5] concerns Cladosporium cladosporioides. To be noted: Bandara et al. 1989/1990; cited from earlier work.
Test [6] deals with labeled chick fetal bones in culture. The test can be described thus: Chick fetal bone culture assay, bone forming activity. It counts as cell-based. To be noted: 0.4 μM; T/C close to unity = no bone forming activity. The procedure: A slight modification of the method of Raisz (Nature 197: 1015-1016, 1963) was employed. Femur bones are isolated from chick embryos on day 11 post-ovulation and cleared of adhering connective tissue by carefully rotating each bone on dry Whatman (I) filter paper under stereomicroscope. Each femur bone is then placed in a drop of PBS before culturing in BGJb medium (pH 7.3) supplemented with penicillin (0.075 mg/ml), streptomycin (0.05 mg/ml), HEPES (2.382 mg/ml) and BSA (1 mg/ml), transferred to BGJb culture medium containing ^45CaCl2 (0.5 μCi/300 μl culture medium) and incubated for 2 h at 37° C. under 5% CO2 in air. Labeled femur bones are then washed with BGJb medium for 24 h at 37° C. under 5% CO2 in air. […]
Contralateral femur of each fetus serves as corresponding control. […] Radioactivity due to ^45Ca in the spent medium collected at 24, 48 and 96 h of culture and HCl extract at 96 h of culture is quantified by Liquid Scintillation Spectrophotometer in 10 ml of the scintillation fluid (ACS II scintillation cocktail, Amersham Biosciences, UK). […]
Bone forming activity (cpm)=A×(A/B)^1/2 ×Total radioactivity incorporated into bone during 24 h incubation with ^45Ca
where total radioactivity refers to ^45Ca released into the medium during first 24 hrs incubation+^45Ca released into the medium during 24 to 96 hr of incubation+^45Ca remaining in the femur. […]

The compound `C#C[C@]1(O)CC[C@H]2[C@@H]3CCc4cc(O)ccc4[C@H]3CC[C@@]21C` [17α-Ethynylestradiol] came in with a Uterine weight gain in test [1] of 514%.
For the compound `COc1ccc2c(c1)OC1c3ccc(O)cc3OCC21` (centres unmarked) [Compound K095, 3-hydroxy-9-methoxypterocarpans], the “Osteoblast cell proliferation (MTT assay)” value with primary osteoblasts (10^−5 M) is on record as 1.28 ± 0.08; with primary osteoblasts (10^−6 M) it was 1.47 ± 0.14; in the test on primary osteoblasts (10^−7 M), 1.35 ± 0.16; in the test on primary osteoblasts (10^−8 M) it was 1.24 ± 0.18; in the test with primary osteoblasts (10^−9 M) it was 1.14 ± 0.19; in the test with primary osteoblasts (10^−10 M), 1.38 ± 0.18. For the same compound, the “Osteoblast cell proliferation (MTT assay)” value in the test on primary osteoblasts (10^−11 M) is recorded as 1.05 ± 0.03. The “osteoblast cell proliferation vs vehicle control” value in the test on primary osteoblasts (10^−11 M to 10^−5 M) is recorded as “enhanced osteoblast cell proliferation”. Moreover, in test [2], the “relative potency in mineralisation on bovine bone slices” value is given as “most potent”. The “intensity of alizarin red staining (rate of new bone formation)” value in test [2] (osteoblasts on bovine bone slices, alone or in combination) is given as “increased intensity of alizarin red staining”. Besides, the alkaline phosphatase activity in the test on osteoblasts [3] (10^−5 M) is listed as 3.28 ± 0.07; with osteoblasts [3] (10^−6 M), 3.42 ± 0.07; in the test with osteoblasts [3] (10^−7 M) it was 3.50 ± 0.07; in the test with osteoblasts [3] (10^−8 M) it was 3.35 ± 0.10; with osteoblasts [3] (10^−9 M) it was 3.54 ± 0.04; in the test on osteoblasts [3] (10^−10 M), 3.40 ± 0.07. This compound showed an alkaline phosphatase activity in the test on osteoblasts [3] (10^−11 M) of 3.51 ± 0.01. Besides, the “expression of alkaline phosphatase vs vehicle control” value in the test with osteoblasts [3] (10^−11 M to 10^−5 M) is listed as “increased expression of alkaline phosphatase”. The “mineralisation quantified by alizarin extraction method” value in the test with osteoblast cells is “enhanced mineralisation”. In addition, the osteogenic activity result with osteoblasts [4] is recorded as “promising osteogenic activity”. Also, the “activity against Cladosporium cladosporioides” value in test [5] is on record as “active”.
Turning to “PTH (aa 1-34): Parathyroid hormone (PTH; aa 1-34), an osteogenic agent, taken as positive control (SVSEIQLMHNLGKHLNSMERVEWLRKKLQDVHNF; Parathyroid hormone; UniProt P01270 32-65, looked up, fragment)”, the “T/C ratio (bone forming activity)” value in test [6] worked out at 0.44.
